Source: patent US10294202B2, “Pyrrolidinones as herbicides” (FMC Corporation, priority 2013, dated 2019)

Assays:
rice = assay: Test B flooded paddy test; format: in vivo, Oryza sativa; conditions: 250 g ai/ha, Flood; scale of 0 to 100 where 0 is no effect and 100 is complete control
Procedure, shortened: (§1)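 First, plants reach the 2-leaf stage; next, pots are flooded to 3 cm and compound is delivered into the water; finally, after 13 to 15 greenhouse days at constant depth, injury is graded visually from 0 to 100 against controls.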

pigweed = assay: Test A pre-/postemergence herbicide test; format: in vivo, Amaranthus retroflexus; conditions: for Pigweed plant response rating: Preemergence, visual rating on 0 to 100 scale (0 no effect, 100 complete control)
Procedure, shortened: (§2)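 Greenhouse pot test with pre- and postemergence application of surfactant-containing solvent formulations. Postemergence plants were 2–10 cm, one- to two-leaf stage. Response scored visually after ~10 days, 0 (no effect) to 100 (complete control).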

barnyardgrass [1] = assay: Test B flooded paddy test; format: in vivo, Echinochloa crus-galli; conditions: 250 g ai/ha, Flood; scale of 0 to 100 where 0 is no effect and 100 is complete control
Procedure, shortened: as §1

ducksalad = assay: Test B flooded paddy test; format: in vivo, Heteranthera limosa; conditions: 250 g ai/ha, Flood; scale of 0 to 100 where 0 is no effect and 100 is complete control
Procedure, shortened: as §1

crabgrass, large = assay: Test A pre-/postemergence herbicide test; format: in vivo, Digitaria sanguinalis; conditions: for Crabgrass, Large plant response rating: Preemergence, visual rating on 0 to 100 scale (0 no effect, 100 complete control)
Procedure, shortened: as §2

giant foxtail = assay: Test A pre-/postemergence herbicide test; format: in vivo, Setaria faberii; conditions: for Foxtail, Giant plant response rating: Preemergence, visual rating on 0 to 100 scale (0 no effect, 100 complete control)
Procedure, shortened: as §2

barnyardgrass [2] = assay: Test A pre-/postemergence herbicide test; format: in vivo, Echinochloa crus-galli; conditions: for Barnyardgrass plant response rating: Preemergence, visual rating on 0 to 100 scale (0 no effect, 100 complete control)
Procedure, shortened: as §2

velvetleaf = assay: Test A pre-/postemergence herbicide test; format: in vivo, Abutilon theophrasti; conditions: for Velvetleaf plant response rating: Preemergence, visual rating on 0 to 100 scale (0 no effect, 100 complete control)
Procedure, shortened: as §2

corn = assay: Test A pre-/postemergence herbicide test; format: in vivo, Zea mays; conditions: for Corn plant response rating: Preemergence, visual rating on 0 to 100 scale (0 no effect, 100 complete control)
Procedure, shortened: as §2

wheat = assay: Test A pre-/postemergence herbicide test; format: in vivo, Triticum aestivum; conditions: for Wheat plant response rating: Preemergence, visual rating on 0 to 100 scale (0 no effect, 100 complete control)
Procedure, shortened: as §2

sedge, umbrella = assay: Test B flooded paddy test; format: in vivo, Cyperus difformis; conditions: 250 g ai/ha, Flood; scale of 0 to 100 where 0 is no effect and 100 is complete control
Procedure, shortened: as §1

morningglory = assay: Test A pre-/postemergence herbicide test; format: in vivo, Ipomoea spp.; conditions: for Morningglory plant response rating: Preemergence, visual rating on 0 to 100 scale (0 no effect, 100 complete control)
Procedure, shortened: as §2

[3] = Postemergence, 125 g ai/ha, 0 to 100 scale, 0 no effect, 100 complete control
[4] = Postemergence, 500 g ai/ha, 0 to 100 scale (0 no effect, 100 complete control)
[5] = preemergence, 500 g ai/ha, 0 to 100 scale
[6] = preemergence, 500 g ai/ha, 0 to 100 scale (0 no effect, 100 complete control)

Compound | Plant response rating, Rice (rice) | Plant response rating, Pigweed (pigweed; [3]) | Plant response rating, Pigweed (pigweed; [4]) | Pigweed plant response rating (pigweed; 125 g ai/ha) | Plant response rating, Pigweed (pigweed; [5]) | Plant response rating, Barnyardgrass (barnyardgrass [1]) | Plant response rating, Ducksalad (ducksalad) | Plant response rating, Crabgrass, Large (crabgrass, large; [3]) | Plant response rating, Crabgrass, Large (crabgrass, large; [4]) | Crabgrass, Large plant response rating (crabgrass, large; 125 g ai/ha) | Plant response rating, Crabgrass, Large (crabgrass, large; [5]) | Plant response rating, Foxtail, Giant (giant foxtail; [3]) | Plant response rating, Foxtail, Giant (giant foxtail; [4]) | Foxtail, Giant plant response rating (giant foxtail; 125 g ai/ha) | Plant response rating, Foxtail, Giant (giant foxtail; [5]) | Plant response rating, Barnyardgrass (barnyardgrass [2]; [3]) | Plant response rating, Barnyardgrass (barnyardgrass [2]; [4]) | Barnyardgrass plant response rating (barnyardgrass [2]; 125 g ai/ha) | Plant response rating, Barnyardgrass (barnyardgrass [2]; [6]) | Plant response rating, Velvetleaf (velvetleaf; [3]) | other results
O=C1NCC(c2ccc(F)c(F)c2)C1C(=O)Nc1cccc[n+]1[O-] (stereo not shown) [Compound 47] | 0 | 0 | 0 | 0 | 0 | 0 | 0 | 0 | 0 | 10 | 60 | 0 | 0 | 0 | 0 | 0 | 0 | 0 | 0 | 0 | Plant response rating, Velvetleaf (velvetleaf; [4]): 0; Velvetleaf plant response rating (velvetleaf; 125 g ai/ha): 0; Plant response rating, Velvetleaf (velvetleaf; [5]): 0; Corn plant response rating (corn; 125 g ai/ha): 0; Plant response rating, Corn (corn; [5]): 0; Plant response rating, Wheat (wheat; [3]): 0; Plant response rating, Wheat (wheat; [4]): 0; Wheat plant response rating (wheat; 125 g ai/ha): 0; Plant response rating, Wheat (wheat; [5]): 0; Plant response rating, Sedge, Umbrella (sedge, umbrella): 0; Plant response rating, Morningglory (morningglory; [3]): 0; Plant response rating, Morningglory (morningglory; [4]): 20; Morningglory plant response rating (morningglory; 125 g ai/ha): 0; Plant response rating, Morningglory (morningglory; [5]): 0
O=C1NCC(c2cc(F)c(F)c(F)c2)C1C(=O)Nc1cccc([N+](=O)[O-])c1 (stereo not shown) [Compound 49] | 0 | 0 | 0 | 0 | 0 | 0 | 70 | 20 | 70 | 70 | 90 | 0 | 40 | 20 | 70 | 0 | 20 | 0 | 20 | 0 | Plant response rating, Velvetleaf (velvetleaf; [4]): 0; Velvetleaf plant response rating (velvetleaf; 125 g ai/ha): 0; Plant response rating, Velvetleaf (velvetleaf; [5]): 0; Plant response rating, Corn (corn; [3]): 0; Plant response rating, Corn (corn; [4]): 0; Corn plant response rating (corn; 125 g ai/ha): 0; Plant response rating, Corn (corn; [5]): 0; Plant response rating, Wheat (wheat; [3]): 0; Plant response rating, Wheat (wheat; [4]): 0; Wheat plant response rating (wheat; 125 g ai/ha): 0; Plant response rating, Wheat (wheat; [5]): 0; Plant response rating, Sedge, Umbrella (sedge, umbrella): 40; Plant response rating, Morningglory (morningglory; [3]): 0; Plant response rating, Morningglory (morningglory; [4]): 0; Morningglory plant response rating (morningglory; 125 g ai/ha): 0; Plant response rating, Morningglory (morningglory; [5]): 0
O=C1NCC(c2cc(F)c(F)cc2F)C1C(=O)Nc1ccccc1F (stereo not shown) [Compound 51] | 15 | 0 | 0 | 0 | 0 | 20 | 80 | 20 | 80 | 90 | 90 | 0 | 30 | 30 | 90 | 0 | 20 | 0 | 0 | 0 | Plant response rating, Velvetleaf (velvetleaf; [4]): 0; Velvetleaf plant response rating (velvetleaf; 125 g ai/ha): 0; Plant response rating, Velvetleaf (velvetleaf; [5]): 0; Plant response rating, Corn (corn; [3]): 0; Plant response rating, Corn (corn; [4]): 0; Corn plant response rating (corn; 125 g ai/ha): 0; Plant response rating, Corn (corn; [5]): 0; Plant response rating, Wheat (wheat; [3]): 0; Plant response rating, Wheat (wheat; [4]): 0; Wheat plant response rating (wheat; 125 g ai/ha): 0; Plant response rating, Wheat (wheat; [5]): 0; Plant response rating, Sedge, Umbrella (sedge, umbrella): 45; Plant response rating, Morningglory (morningglory; [3]): 0; Plant response rating, Morningglory (morningglory; [4]): 0; Morningglory plant response rating (morningglory; 125 g ai/ha): 0; Plant response rating, Morningglory (morningglory; [5]): 0
O=C1NCC(c2ccc(F)c(F)c2)C1C(=O)Nc1ccccc1OC(F)(F)F (stereo not shown) [Compound 54] | 20 | 0 | 0 | 0 | 0 | 0 | 70 | 70 | 80 | 90 | 90 | 60 | 70 | 90 | 90 | 0 | 0 | 0 | 20 | 0 | Plant response rating, Velvetleaf (velvetleaf; [4]): 0; Velvetleaf plant response rating (velvetleaf; 125 g ai/ha): 0; Plant response rating, Velvetleaf (velvetleaf; [5]): 0; Plant response rating, Corn (corn; [3]): 0; Plant response rating, Corn (corn; [4]): 0; Corn plant response rating (corn; 125 g ai/ha): 0; Plant response rating, Corn (corn; [5]): 0; Plant response rating, Wheat (wheat; [3]): 0; Plant response rating, Wheat (wheat; [4]): 0; Wheat plant response rating (wheat; 125 g ai/ha): 0; Plant response rating, Wheat (wheat; [5]): 20; Plant response rating, Sedge, Umbrella (sedge, umbrella): 0; Plant response rating, Morningglory (morningglory; [3]): 0; Plant response rating, Morningglory (morningglory; [4]): 0; Morningglory plant response rating (morningglory; 125 g ai/ha): 0; Plant response rating, Morningglory (morningglory; [5]): 0
Cc1cccc(NC(=O)C2C(=O)NCC2c2ccc(F)c(F)c2)c1 (stereo not shown) [Compound 56] | 0 | 0 | 0 | 0 | 0 | 0 | 0 | 50 | 80 | 60 | 90 | 20 | 60 | 20 | 50 | 0 | 50 | 0 | 40 | 0 | Plant response rating, Velvetleaf (velvetleaf; [4]): 0; Velvetleaf plant response rating (velvetleaf; 125 g ai/ha): 0; Plant response rating, Velvetleaf (velvetleaf; [5]): 0; Plant response rating, Corn (corn; [3]): 0; Plant response rating, Corn (corn; [4]): 0; Corn plant response rating (corn; 125 g ai/ha): 0; Plant response rating, Corn (corn; [5]): 0; Plant response rating, Wheat (wheat; [3]): 0; Plant response rating, Wheat (wheat; [4]): 0; Wheat plant response rating (wheat; 125 g ai/ha): 0; Plant response rating, Wheat (wheat; [5]): 0; Plant response rating, Sedge, Umbrella (sedge, umbrella): 0; Plant response rating, Morningglory (morningglory; [3]): 0; Plant response rating, Morningglory (morningglory; [4]): 0; Morningglory plant response rating (morningglory; 125 g ai/ha): 0; Plant response rating, Morningglory (morningglory; [5]): 0
CC1(C(=O)Nc2cccc(F)c2F)C(=O)NCC1c1ccc(F)c(Cl)c1 (stereo not shown) [Compound 61] | 0 | 0 | 0 | 0 | 0 | 0 | 0 | 0 | 70 | 0 | 80 | 0 | 30 | 0 | 0 | 0 | 20 | 0 | 0 | 0 | Plant response rating, Velvetleaf (velvetleaf; [4]): 0; Velvetleaf plant response rating (velvetleaf; 125 g ai/ha): 0; Plant response rating, Velvetleaf (velvetleaf; [5]): 0; Plant response rating, Corn (corn; [3]): 0; Plant response rating, Corn (corn; [4]): 0; Corn plant response rating (corn; 125 g ai/ha): 0; Plant response rating, Corn (corn; [5]): 0; Plant response rating, Wheat (wheat; [3]): 0; Plant response rating, Wheat (wheat; [4]): 0; Wheat plant response rating (wheat; 125 g ai/ha): 0; Plant response rating, Wheat (wheat; [5]): 0; Plant response rating, Sedge, Umbrella (sedge, umbrella): 30; Plant response rating, Morningglory (morningglory; [3]): 0; Plant response rating, Morningglory (morningglory; [4]): 0; Morningglory plant response rating (morningglory; 125 g ai/ha): 0; Plant response rating, Morningglory (morningglory; [5]): 0
